# Test results reported in PubChem BioAssay AID1259407 (Chemical Carcinogenesis Research Information System (CCRIS), 2018).
# Calls of active or inactive are those of the source. How the calls were made is not given here.
# Test system: CCRIS mutagenicity, Ames/micronucleus/aberration tests
# Test: CCRIS mutagenicity studies
# [1] = Test System: AMES SALMONELLA TYPHIMURIUM, Strain/Indicator: TA97, Metabolic Activation: HAMSTER, LIVER, S-9, AROCLOR 1254 (10%), Method: PREINCUBATION
# [2] = Test System: AMES SALMONELLA TYPHIMURIUM, Strain/Indicator: TA97, Metabolic Activation: NONE, Method: PREINCUBATION
# [3] = Test System: AMES SALMONELLA TYPHIMURIUM, Strain/Indicator: TA97, Metabolic Activation: RAT, LIVER, S-9, AROCLOR 1254 (10%), Method: PREINCUBATION
# [4] = Test System: AMES SALMONELLA TYPHIMURIUM, Strain/Indicator: TA98, Metabolic Activation: HAMSTER, LIVER, S-9, AROCLOR 1254 (10%), Method: PREINCUBATION
# [5] = Test System: AMES SALMONELLA TYPHIMURIUM, Strain/Indicator: TA98, Metabolic Activation: NONE, Method: PREINCUBATION
# [6] = Test System: AMES SALMONELLA TYPHIMURIUM, Strain/Indicator: TA98, Metabolic Activation: RAT, LIVER, S-9, AROCLOR 1254 (10%), Method: PREINCUBATION
# [7] = Test System: AMES SALMONELLA TYPHIMURIUM, Strain/Indicator: TA100, Metabolic Activation: HAMSTER, LIVER, S-9, AROCLOR 1254 (10%), Method: PREINCUBATION
# [8] = Test System: AMES SALMONELLA TYPHIMURIUM, Strain/Indicator: TA100, Metabolic Activation: NONE, Method: PREINCUBATION
# [9] = Test System: AMES SALMONELLA TYPHIMURIUM, Strain/Indicator: TA100, Metabolic Activation: RAT, LIVER, S-9, AROCLOR 1254 (10%), Method: PREINCUBATION
# [10] = Test System: AMES SALMONELLA TYPHIMURIUM, Strain/Indicator: TA1535, Metabolic Activation: HAMSTER, LIVER, S-9, AROCLOR 1254 (10%), Method: PREINCUBATION
# [11] = Test System: AMES SALMONELLA TYPHIMURIUM, Strain/Indicator: TA1535, Metabolic Activation: NONE, Method: PREINCUBATION
# [12] = Test System: AMES SALMONELLA TYPHIMURIUM, Strain/Indicator: TA1535, Metabolic Activation: RAT, LIVER, S-9, AROCLOR 1254 (10%), Method: PREINCUBATION
structure (smiles),measurement,setting,value
O=C1CCC(=O)O1,mutagenic call,[1],inactive; negative
same,mutagenic call,"Test System: AMES SALMONELLA TYPHIMURIUM, Strain/Indicator: TA97, Metabolic Activation: HAMSTER, LIVER, S-9, AROCLOR 1254 (30%), Method: PREINCUBATION",inactive; negative
same,mutagenic call,"Test System: AMES SALMONELLA TYPHIMURIUM, Strain/Indicator: TA97, Metabolic Activation: HAMSTER, LIVER, S-9, AROCLOR 1254, Method: PREINCUBATION",inactive; negative
same,mutagenic call,[2],inactive; negative
same,mutagenic call,[3],inactive; negative
same,mutagenic call,"Test System: AMES SALMONELLA TYPHIMURIUM, Strain/Indicator: TA97, Metabolic Activation: RAT, LIVER, S-9, AROCLOR 1254 (30%), Method: PREINCUBATION",inactive; negative
same,mutagenic call,"Test System: AMES SALMONELLA TYPHIMURIUM, Strain/Indicator: TA97, Metabolic Activation: RAT, LIVER, S-9, AROCLOR 1254, Method: PREINCUBATION",inactive; negative
same,mutagenic call,[4],inactive; negative
same,mutagenic call,"Test System: AMES SALMONELLA TYPHIMURIUM, Strain/Indicator: TA98, Metabolic Activation: HAMSTER, LIVER, S-9, AROCLOR 1254 (30%), Method: PREINCUBATION",inactive; negative
same,mutagenic call,"Test System: AMES SALMONELLA TYPHIMURIUM, Strain/Indicator: TA98, Metabolic Activation: HAMSTER, LIVER, S-9, AROCLOR 1254, Method: PREINCUBATION",inactive; negative
same,mutagenic call,[5],inactive; negative
same,mutagenic call,[6],inactive; negative
same,mutagenic call,"Test System: AMES SALMONELLA TYPHIMURIUM, Strain/Indicator: TA98, Metabolic Activation: RAT, LIVER, S-9, AROCLOR 1254 (30%), Method: PREINCUBATION",inactive; negative
same,mutagenic call,"Test System: AMES SALMONELLA TYPHIMURIUM, Strain/Indicator: TA98, Metabolic Activation: RAT, LIVER, S-9, AROCLOR 1254, Method: PREINCUBATION",inactive; negative
same,mutagenic call,[7],inactive; negative
same,mutagenic call,"Test System: AMES SALMONELLA TYPHIMURIUM, Strain/Indicator: TA100, Metabolic Activation: HAMSTER, LIVER, S-9, AROCLOR 1254 (30%), Method: PREINCUBATION",inactive; negative
same,mutagenic call,"Test System: AMES SALMONELLA TYPHIMURIUM, Strain/Indicator: TA100, Metabolic Activation: HAMSTER, LIVER, S-9, AROCLOR 1254, Method: PREINCUBATION",inactive; negative
same,mutagenic call,[8],inactive; negative
same,mutagenic call,[9],inactive; negative
same,mutagenic call,"Test System: AMES SALMONELLA TYPHIMURIUM, Strain/Indicator: TA100, Metabolic Activation: RAT, LIVER, S-9, AROCLOR 1254 (30%), Method: PREINCUBATION",inactive; negative
same,mutagenic call,"Test System: AMES SALMONELLA TYPHIMURIUM, Strain/Indicator: TA100, Metabolic Activation: RAT, LIVER, S-9, AROCLOR 1254, Method: PREINCUBATION",inactive; negative
same,mutagenic call,[10],inactive; negative
same,mutagenic call,"Test System: AMES SALMONELLA TYPHIMURIUM, Strain/Indicator: TA1535, Metabolic Activation: HAMSTER, LIVER, S-9, AROCLOR 1254 (30%), Method: PREINCUBATION",inactive; negative
same,mutagenic call,"Test System: AMES SALMONELLA TYPHIMURIUM, Strain/Indicator: TA1535, Metabolic Activation: HAMSTER, LIVER, S-9, AROCLOR 1254, Method: PREINCUBATION",inactive; negative
same,mutagenic call,[11],inactive; negative
same,mutagenic call,[12],inactive; negative
same,mutagenic call,"Test System: AMES SALMONELLA TYPHIMURIUM, Strain/Indicator: TA1535, Metabolic Activation: RAT, LIVER, S-9, AROCLOR 1254 (30%), Method: PREINCUBATION",inactive; negative
same,mutagenic call,"Test System: AMES SALMONELLA TYPHIMURIUM, Strain/Indicator: TA1535, Metabolic Activation: RAT, LIVER, S-9, AROCLOR 1254, Method: PREINCUBATION",inactive; negative
same,mutagenic call,"Test System: AMES SALMONELLA TYPHIMURIUM, Strain/Indicator: TA1537, Metabolic Activation: HAMSTER, LIVER, S-9, AROCLOR 1254 (10%), Method: PREINCUBATION",inactive; negative
same,mutagenic call,"Test System: AMES SALMONELLA TYPHIMURIUM, Strain/Indicator: TA1537, Metabolic Activation: HAMSTER, LIVER, S-9, AROCLOR 1254, Method: PREINCUBATION",inactive; negative
same,mutagenic call,"Test System: AMES SALMONELLA TYPHIMURIUM, Strain/Indicator: TA1537, Metabolic Activation: NONE, Method: PREINCUBATION",inactive; negative
same,mutagenic call,"Test System: AMES SALMONELLA TYPHIMURIUM, Strain/Indicator: TA1537, Metabolic Activation: RAT, LIVER, S-9, AROCLOR 1254 (10%), Method: PREINCUBATION",inactive; negative
same,mutagenic call,"Test System: AMES SALMONELLA TYPHIMURIUM, Strain/Indicator: TA1537, Metabolic Activation: RAT, LIVER, S-9, AROCLOR 1254, Method: PREINCUBATION",inactive; negative
CN(C)c1ccc(N=NS(=O)(=O)O)cc1,mutagenic call,[1],active; positive
same,mutagenic call,[2],active; positive
same,mutagenic call,[3],active; positive
same,mutagenic call,[4],active; positive
same,mutagenic call,[5],active; positive
same,mutagenic call,"Test System: AMES SALMONELLA TYPHIMURIUM, Strain/Indicator: TA98, Metabolic Activation: NONE, Method: STANDARD PLATE",active; positive
same,mutagenic call,[6],active; positive
same,mutagenic call,"Test System: AMES SALMONELLA TYPHIMURIUM, Strain/Indicator: TA98, Metabolic Activation: S-9 MIX, Method: STANDARD PLATE",active; positive
same,mutagenic call,[7],active; positive
same,mutagenic call,[8],active; positive
same,mutagenic call,[9],active; positive
same,mutagenic call,[10],active; positive
same,mutagenic call,[11],inactive; negative
same,mutagenic call,[12],inactive; negative
same,mutagenic call,"Test System: E. COLI, Strain/Indicator: WP2, Metabolic Activation: NONE, Method: STANDARD PLATE",active; positive
same,mutagenic call,"Test System: E. COLI, Strain/Indicator: WP2 UVRA, Metabolic Activation: NONE, Method: STANDARD PLATE",active; positive
